Source: US10899764B2, “Imidazo isoindole derivative, preparation method therefor and medical use thereof” (Jiangsu Hengrui Medicine Co., Ltd., priority 2015, dated 2021)
Counter-ions that a name gives are not always drawn.

Assays:
[1] = Pharmacokinetics assay in SD rats after intragastrical administration; type: in vivo; conditions: both sexes, Sprague-Dawley, rat, plasma, po, intragastric, 10 mg/kg
Protocol: Sprague-Dawley (SD) rats were used as test animals. […] The pharmacokinetic behavior of the compounds of the present invention was studied and evaluated in rats.
Eight (8) healthy adult SD rats, half male and half female, were purchased from SINO-BRITSH SIPPR/BK LAB. […]
The samples were stored in heparinized test tubes, and centrifuged for 10 minutes at 3,500 rpm to separate blood plasma. The plasma samples were stored at −20° C. The rats were fed 2 hours after administration.
(§1) The concentration of the test compounds in rat plasma after intragastric administration was determined by LC/MS/MS.

IDO in HeLa cells = IDO in HeLa cells (Homo sapiens (Human), UniProt P14902); assay: Inhibition activity on IDO in HeLa cells (INF-γ induced); type: cell-based; conditions: HeLa cells, INF-γ and tryptophan, 48 hours; read-out: IC50 for inhibiting the activity of IDO in HeLa cells
Protocol: Assay for Determining the Inhibition Activity of the Present Compounds on IDO in HeLa Cells
IDO activity in HeLa cells was tested in vitro by the following method.
This method is used to determine the inhibition effect of the compounds of the present invention on the activity of IDO in HeLa cells. (Note: indoleamine 2,3-dioxygenase (IDO) is expressed in the HeLa cell line and induced by interferon gamma (INF-γ)).
The supernatant was removed, serum-free DMEM high glucose medium was added at 90 μL/well, then the compounds contained in the culture medium with INF-γ and tryptophan were added at 10 μL/well (the final concentrations: 10000, 1000, 100, 10, 1, 0.1 nM). […] Then, 80 μL of the supernate was transferred from the 96-well cell culture plate to a 96 well round-bottomed plate, then 30% (W/V) trichloroacetic acid was added at 16 μL/well, then the mixture was incubated for 25 minutes at 65° C. in an incubator. The reaction plate was centrifuged in a centrifuge for 5 minutes at 4700 RPM. Then, 50 μL of the supernatant was transferred from the reaction plate to a 96-well flat-bottomed transparent plate by a multi-channel pipette. Then, 2% (W/V) 4-(dimethylamino)benzaldehyde/glacial acetic acid solution was added at 50 μL/well, then the mixture was mixed uniformly for 1 minute on a shaker. After incubation for 2 minutes at room temperature, the absorbance at 480 nm was read on a Synergy HT Reader.
The inhibition activity of the compounds of the present invention on IDO in HeLa cells was tested by the assay described above.

[2] = Pharmacokinetics assay in c57bl/6 mice after intragastric administration; type: in vivo; conditions: mouse, plasma, po, female c57bl/6 mice, 3 mg/kg
Protocol: c57bl/6 mice were used as test animals. […] The pharmacokinetic behavior of the compounds of the present invention was studied and evaluated in c57bl/6 mice.
Eighteen (18) female c57bl/6 mice, were purchased from SINO-BRITSH SIPPR/BK LAB. ANIMAL LTD., CO.
The appropriate amount of each test compound was weighed, and added with 0.5% CMC-Na to prepare a 1 mg/mL suspension by an ultrasonic method.
After an overnight fast, 18 female c57bl/6 mice were equally divided into 2 groups, 9 mice per group, and administered the test compounds intragastrically at an administration volume of 0.2 mL/kg.
The samples were stored in heparinized test tubes, and centrifuged for 10 minutes at 3,500 rpm to separate blood plasma. The plasma samples were stored at −20° C.
as §1

[3] = read-out: Apparent Distribution Volume Vz/F
[4] = read-out: Mean Residence Time MRT

Sequence of IDO in HeLa cells (P14902 whole entry): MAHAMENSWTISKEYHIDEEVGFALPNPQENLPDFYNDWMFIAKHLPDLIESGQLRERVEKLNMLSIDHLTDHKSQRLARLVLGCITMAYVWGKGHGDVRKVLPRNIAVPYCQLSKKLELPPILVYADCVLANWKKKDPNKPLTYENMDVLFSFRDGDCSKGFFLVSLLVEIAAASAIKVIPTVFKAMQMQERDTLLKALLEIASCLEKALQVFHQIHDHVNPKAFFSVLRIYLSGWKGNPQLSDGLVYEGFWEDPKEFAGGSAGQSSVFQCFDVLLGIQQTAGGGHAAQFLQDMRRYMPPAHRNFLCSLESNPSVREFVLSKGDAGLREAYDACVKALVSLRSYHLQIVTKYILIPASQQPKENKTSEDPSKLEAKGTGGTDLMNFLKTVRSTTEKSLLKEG

Row | Compound | Vd/F [1, 3] | AUC ([1]; read-out: Area Under Curve AUC) | CL/F ([1]; read-out: Clearance CLz/F) | half-life ([1]; read-out: Half-Life T½ (converted)) | MRT [1, 4] | Cmax ([1]; read-out: Plasma Conc. Cmax) | IC50 (IDO in HeLa cells) | Vd/F [2, 3] | AUC ([2]; read-out: Area Under Curve AUC) | CL/F ([2]; read-out: Clearance CLz/F) | half-life ([2]; read-out: Half-Life t½ (converted)) | MRT [2, 4] | Cmax ([2]; read-out: Plasma Conc. Cmax)
1 | Fc1cccc(N2CCC(C3c4c(F)cccc4-c4cncn43)CC2)c1 (centres unmarked) [Example 3, 6-fluoro-5-(1-(3-fluorophenyl)piperidin-4-yl)-5H-imidazo[5,1-a]isoindole trifluoroacetate] | 14.1 ± 1.72 L/kg | 2620 ± 977 ng·h/mL | 70.9 ± 26.4 mL/min/kg | 2.54 ± 0.91 h | 2.72 ± 0.36 h | 1070 ± 524 ng/mL | 167 nM |  |  |  |  |  | 
2 | OCCn1cc(-c2ccc(N3CCC([C@H]4c5c(F)cccc5-c5cncn54)CC3)cc2)cn1 [Example 41, (S)-2-(4-(4-(4-(6-fluoro-5H-imidazo[5,1-a]isoindol-5-yl)piperidin-1-yl)phenyl)-1H-pyrazol-1-yl)ethanol] |  |  |  |  |  |  | 47.7 nM | 1.28 L/kg | 4630 ng·h/mL | 10.8 mL/min/kg | 2.06 h | 1.36 h | 1670 ng/mL
